Results reported in patent US20040220266A1, “Composition and method for enhancing the bioavailability of calcium and magnesium in dietary supplements and food additives” (priority 2002, published 2004).

Key:
[1] = oral dietary supplement; cited from earlier work
[2] = saturated aqueous solution, 20° C.; cited from earlier work
[3] = Solubility in water / saturated aqueous solution
From the text: The term “soluble” as used herein means capable of being dissolved, going into a liquid state from a solid state.

[4] = Storage stability of the powders; type: physicochemical; settings: shelf life

| Molecule | bioavailability / absorption of calcium (in words) [1] | also measured |
| --- | --- | --- |
| O.O.O=P([O-])([O-])O.[Ca+2] [dibasic calcium phosphate dihydrate] | poor |  |
| d-gluconic acid calcium salt [Calcium gluconate] |  | pH of saturated solution [2]: 6-7 |
| O=P([O-])([O-])[O-].O=P([O-])([O-])[O-].[Ca+2].[Ca+2].[Ca+2] [tribasic calcium phosphate] | poor |  |
| O=C([O-])[O-].[Ca+2] [Calcium carbonate] | relatively poor |  |
| CC(O)C(=O)[O-].CC(O)C(=O)[O-].O.O.O.O.O.[Ca+2] (stereo not shown) [calcium lactate pentahydrate, 2-hydroxypropanoic acid calcium salt pentahydrate] | good |  |
| magnesium 3-hydroxy-3-methylbutyrate [MgHMB] |  | concentration of saturated aqueous solution ([3]; 20° C.): 32 % by weight; solubility over pH range (in words) ([3]; broad range of pH values): highly soluble; pH of aqueous solution (in words) ([3]; pure salt dissolved in water): nearly neutral or slightly alkaline; stability of the powder (in words) [4]: stable powders with long shelf lives |
| O.O.O.O.O=C([O-])CC(O)(CC(=O)[O-])C(=O)[O-].O=C([O-])CC(O)(CC(=O)[O-])C(=O)[O-].[Ca+2].[Ca+2].[Ca+2] [Calcium citrate tetrahydrate] | better absorbed than the carbonate or phosphates of calcium |  |
